# Target: Cdc42 (Homo sapiens, UniProt P60953)
# Experiment: equilibrium binding by flow cytometry on beads
# Sequence of Cdc42 (P60953 1-188): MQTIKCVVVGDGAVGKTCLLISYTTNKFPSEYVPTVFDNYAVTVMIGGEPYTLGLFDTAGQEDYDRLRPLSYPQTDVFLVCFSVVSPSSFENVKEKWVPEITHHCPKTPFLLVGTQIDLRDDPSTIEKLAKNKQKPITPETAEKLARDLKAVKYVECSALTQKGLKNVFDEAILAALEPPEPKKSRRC
smiles,measurement,value
Cc1cc(C)n2c1C=C1C=CC(CCC(=O)NCCNC(=O)OC3C(COP(=O)(O)OP(=O)(O)OP(=O)(O)O)OC(n4cnc5c(=O)[nH]c(N)nc54)C3O)=[N+]1[B-]2(F)F (stereo not shown) [BODIPY-FL-GTP],Kd,0.6 nM
